Patent publication US20240181081A1, “Compositions and Methods for Treatment of Myotonic Dystrophy Type 1 with CRISPR/SACAS9” (Vertex Pharmaceuticals Incorporated, priority 2021, published 2024)

Columns and labels:
[1] = system: CUG RNA foci in primary DM1 patient myoblasts; assay: DOUBLE-cut screening: FISH staining of RNA foci in primary DM1 patient myoblasts; format: cell-based, human; conditions: sgRNA pair RNP, 72 hrs post nucleofection; for % of CUG foci free nuclei (DNA-PKi): 3 μM Compound 6 for 48 hrs; for % of CUG foci free nuclei (Vehicle): DMSO 48 hrs
Method: (§1) RNPs were assembled with recombinant SaCas9 protein (Aldevron) and chemically modified sgRNAs (Synthego) at a ratio of 1:3 (protein:sgRNA). For SINGLE-cut screening, RNP complexes were assembled with 30 pmol of SaCas9 and 90 pmol of sgRNA in P5 Primary Cell Nucleofector Solution (Lonza). After incubation at room temperature for 20 minutes, 10 μL of RNP complex was mixed with two hundred thousand primary myoblasts resuspended in 10 μL of P5 Nucleofector Solution. For DOUBLE-cut screening, RNP complexes were first assembled for individual sgRNAs with 20 pmol of SaCas9 protein and 60 pmol of sgRNAs in 5 μL of P5 Nucleofector Solution. After incubation at room temperature for 20 minutes, the two RNP complexes (one for upstream sgRNA and one for downstream sgRNA) were mixed at 1:1 ratio and then further mixed with two hundred thousand primary myoblasts resuspended in 10 μL of P5 Nucleofector Solution.
(§2) The Nucleofector 96-well Shuttle System (Lonza) was used to deliver the SaCa9/sgRNA RNPs into primary DM1 patient myoblasts using the nucleofection program CM138. Following nucleofection, myoblasts from each well of nucleofection shuttle were split into six wells of the 96-well cell culture plate (Greiner, 655090) coated with matrigel. The first three wells were treated with DMSO for 48 hrs before changing to fresh myoblast growth medium, and the other three wells were treated with 3 μM of DNA-PKi Compound 6 for 48 hrs before changing to fresh myoblast growth medium. 72 hrs post nucleofection, two wells of DMSO-treated myoblasts and two wells of DNA-PKi-treated myoblasts from each nucleofection were harvested for genomic DNA extraction using the Kingfisher Flex purification system (Thermal Fisher), whereas one well of DMSO-treated myoblasts and one well of DNA-PKi-treated myoblasts were stained for RNA foci by FISH staining.
Primary myoblasts were fixed for 15 min with 4% paraformaldehyde (PFA) and washed five times with 1×PBS for 10 min each at room temperature. Before staining, cells were permeabilized with 0.5% triton X-100 in 1×PBS for 5 min at room temperature, and then washed with 30% formamide and 2× saline-sodium citrate (SSC) mixture for 10 min at room temperature. Cells were then stained with 1 ng/μL of Cy3-PNA(CAG) 5 probe (PNA Bio, F5001) diluted in 30% formamide, 2×SSC, 2 μg/mL BSA, 66 μg/mL yeast tRNA, and 2 mM vanadyl complex for 15 min at 80° C. Following probe staining, cells were then washed in 30% formamide and 2×SSC mixture for 30 min at 42° C., then washed in 30% formamide and 2×SSC mixture for 30 min at 37° C., and then washed in 1×SSC solution for 10 min at room temperature, and finally washed in 1×PBS for 10 min at room temperature. Cells were next stained with anti-MBNL1 antibody (Santa Cruz, 3A4) diluted in 1% bovine serum albumin (BSA) for overnight at 4° C., and washed twice with 1×PBS for 10 min each at room temperature. Cells were then incubated with the secondary antibody goat […] Alexa 647 (Thermo Fisher, A32728) diluted in 1% BSA for 1 hr at room temperature, and washed twice with 1×PBS for 10 min each at room temperature. Next, cells were stained with Hoechst solution (Thermo Fisher, H3569) at 0.1 mg/ml for 5 min, and washed once with 1×PBS for 5 min. PBS was aspirated and fresh 100 μl of fresh PBS was added to each well. High-throughput acquisition of images was completed with the ImageXpress Micro Confocal High-Content Imaging System (Molecular Devices). RNA foci quantifications were accomplished with a customized analysis module of the MetaXpress program (Molecular Devices).
Next, DOUBLE-cut screening was performed to assess the efficiency of paired sgRNAs-induced CTG repeat excision and RNA foci reduction. 90 SaCas9 sgRNA pairs formed by one upstream sgRNA and one downstream sgRNA were assembled with recombinant SaCas9 protein into RNP complex and nucleofected into primary DM1 patient myoblasts. […]

[2] = system: CTG repeat expansion in the 3′ UTR of human DMPK gene; assay: DOUBLE-cut screening: CTG repeat excision by loss-of-signal ddPCR in primary DM1 patient myoblasts; format: cell-based; conditions: sgRNA pair RNP, mean of upstream and downstream ddPCR assays; for % of CTG repeat excision efficiency by ddPCR (DNA-PKi): 3 μM Compound 6 for 48 hrs; for % of CTG repeat excision efficiency by ddPCR (Vehicle): DMSO 48 hrs
Method: as §1, §2
The primers and probes of ddPCR were designed using the online primer design software Primer3Plus (http://www.bioinformatics.nl/cgi-bin/primer3plus/primer3plus.cgi). The two Target primers/probe sets were used to detect CTG repeat excision, and the Reference primers/probe set was used to amplify a region located in Exon 1 of human DMPK gene and it served as a reference control for the Target sets. The 24 μL of ddPCR reaction consisted of 12 μL of Supermix for Probes (no dUTP) (Bio-Rad Laboratories), 1 μL of Reference primers mix (21.6 μM), 1 μL of Reference probe (6 μM), 1 μL of Target primers mix (21.6 μM), 1 μL of Target probe (6 μM), and 8 μL of sample genomic DNA. Droplets were generated using probe oil with the QX200 Droplet Generator (Bio-Rad Laboratories). Droplets were transferred to a 96-well PCR plate, sealed and cycled in a C1000 deep well Thermocycler (Bio-Rad Laboratories) under the following cycling protocol: 1 cycle at 95° C. for 10 min; 40 cycles of 94° C. for 30 sec, and 58° C. for 1 min; 1 cycle at 98° C. for 10 min (for enzyme inactivation). The cycled plate was then transferred and read in the FAM and HEX channels using the Bio-Rad QX200 Droplet Reader (Bio-Rad Laboratories). ddPCR analysis was performed with the Bio-Rad QuantaSoft Pro Software.
Next, DOUBLE-cut screening was performed to assess the efficiency of paired sgRNAs-induced CTG repeat excision and RNA foci reduction. 90 SaCas9 sgRNA pairs formed by one upstream sgRNA and one downstream sgRNA were assembled with recombinant SaCas9 protein into RNP complex and nucleofected into primary DM1 patient myoblasts. Nucleofected myoblasts were treated with either DMSO (vehicle) or 3 μM of Compound 6 (DNA-PKi) for 48 hrs. 72 hrs post nucleofection, myoblasts were subjected to either genomic DNA isolation or RNA foci staining.
One upstream and one downstream loss-of-signal droplet digital PCR (ddPCR) assays were used to determine the efficiency of CTG repeat excision. ddPCR signals would be abolished upon excision of the CTG repeat expansion in these loss-of-signal ddPCR assays. […]

Substance | % of CUG foci free nuclei (DNA-PKi) [1] | % of CUG foci free nuclei (Vehicle) [1] | % of CTG repeat excision efficiency by ddPCR (DNA-PKi) [2] | % of CTG repeat excision efficiency by ddPCR (Vehicle) [2]
SaU7 + SaD15: SaCas9 sgRNA pair, SEQ ID NOs: 7 and 23 (guide 1 CGCGGCCGGCGAACGGGGCTCG; guide 2 GACAATAAATACCGAGGAATGT; listed as DNA, chemistry not fully specified) | 89.69% | 64.62% | 66.66% | 36.65%
SaU7 +SaD20: SaCas9 sgRNA pair, SEQ ID NOs: 7 and 28 (guide 1 CGCGGCCGGCGAACGGGGCTCG; guide 2 AGATGGAGGGCCTTTTATTCGC; listed as DNA, chemistry not fully specified) | 83.24% | 63.33% | 67.93% | 39.72%
SaU1 + SaD4: SaCas9 sgRNA pair, SEQ ID NOs: 1 and 12 (guide 1 GCCCCGGAGTCGAAGACAGTTC; guide 2 ACTTTGCGAACCAACGATAGGT; listed as DNA, chemistry not fully specified) | 87.86% | 81.45% | 61.00% | 41.92%
SaU7 + SaD12: SaCas9 sgRNA pair, SEQ ID NOs: 7 and 20 (guide 1 CGCGGCCGGCGAACGGGGCTCG; guide 2 TCAGTGCATCCAAAACGTGGAT; listed as DNA, chemistry not fully specified) | 86.06% | 66.41% | 62.84% | 39.71%
SaU1 + SaD3: SaCas9 sgRNA pair, SEQ ID NOs: 1 and 11 (guide 1 GCCCCGGAGTCGAAGACAGTTC; guide 2 CAACGATAGGTGGGGGTGCGTG; listed as DNA, chemistry not fully specified) | 81.32% | 47.32% | 52.18% | 33.47%
SaU8 +SaD11: SaCas9 sgRNA pair, SEQ ID NOs: 8 and 19 (guide 1 GGCTCGAAGGGTCCTTGTAGCC; guide 2 CAAAACGTGGATTGGGGTTGTT; listed as DNA, chemistry not fully specified) | 70.97% | 44.65% | 47.57% | 31.52%
SaU4 + SaD18: SaCas9 sgRNA pair, SEQ ID NOs: 4 and 26 (guide 1 CCAGTTCACAACCGCTCCGAGC; guide 2 GGGCCTTTTATTCGCGAGGGTC; listed as DNA, chemistry not fully specified) | 69.76% | 36.81% | 45.55% | 26.25%
SaU1 + SaD20: SaCas9 sgRNA pair, SEQ ID NOs: 1 and 28 (guide 1 GCCCCGGAGTCGAAGACAGTTC; guide 2 AGATGGAGGGCCTTTTATTCGC; listed as DNA, chemistry not fully specified) | 83.73% | 69.61% | 61.37% | 39.94%
SaU3 + SaD18: SaCas9 sgRNA pair, SEQ ID NOs: 3 and 26 (guide 1 ACTCCGGGGCCCCGTTGGAAGA; guide 2 GGGCCTTTTATTCGCGAGGGTC; listed as DNA, chemistry not fully specified) | 71.73% | 33.15% | 50.13% | 21.51%
SaU4 + SaD13: SaCas9 sgRNA pair, SEQ ID NOs: 4 and 21 (guide 1 CCAGTTCACAACCGCTCCGAGC; guide 2 CCCAACAACCCCAATCCACGTT; listed as DNA, chemistry not fully specified) | 73.71% | 43.83% | 54.46% | 32.38%
SaU3 + SaD19: SaCas9 sgRNA pair, SEQ ID NOs: 3 and 27 (guide 1 ACTCCGGGGCCCCGTTGGAAGA; guide 2 AGGACCCCCACCCCCGACCCTC; listed as DNA, chemistry not fully specified) | 81.67% | 57.16% | 53.36% | 32.67%
SaU2 + SaD13: SaCas9 sgRNA pair, SEQ ID NOs: 2 and 21 (guide 1 ACTCAGTCTTCCAACGGGGCCC; guide 2 CCCAACAACCCCAATCCACGTT; listed as DNA, chemistry not fully specified) | 75.83% | 39.86% | 51.47% | 30.92%
SaU2 + SaD3: SaCas9 sgRNA pair, SEQ ID NOs: 2 and 11 (guide 1 ACTCAGTCTTCCAACGGGGCCC; guide 2 CAACGATAGGTGGGGGTGCGTG; listed as DNA, chemistry not fully specified) | 80.14% | 55.11% | 56.04% | 36.75%
